What was measured:
[1] = tested on: Drosophila melangaster EcR isoforms; assay: Drosophila melanogaster EcR isoforms, response to ecdysteroid agonists (FIG. 8); assay type: cell-based
Description: Unless noted otherwise, 100 ng of each EcR and USP plasmid was transfected into 2 ml of cell culture medium. As noted above, a reporter gene carrying five tandem copies of the hsp27 ecdysone response element (Riddihough and Pelham, 1986) is attached to a constitutive thymidine kinase promoter and a luciferase reporter gene (pEcREtk-LUC) and cotransfected into the cells along with vectors expressing EcR, USP, and a constitutively active β-galactosidase gene with lipofection, following manufacturer's protocols. The subsequent measure of luciferase activity reflects ecdysteroid-inducible transcription.
The Drosophila EcR isoform vectors (A, B1, and B2) used for these experiments have been described previously (Mouillet et al, 2001). These vectors lack the F-domain, which is also not essential for in vivo function (Cherbas et al, 2003). Additionally, three different VP16-USP vectors were utilized. Construction is of the VP16-USP vectors is described below. As in the earlier study, hsp27-EcRE mediated transcriptional activity was measured by detecting the luminescence produced by luciferase in transfected cell extracts. Luciferase activity was normalized by transfection with a plasmid that constitutively expresses the β-galactosidase gene such that enzymatic activity correlated with cellular mass. […]

GGEc = biological target: T1, GGEc (Drosophila melanogaster, UniProt P34021); assay: GGEc chimera (GR amino terminus and DBD, EcR LBD) with RXR in CHO cells; assay type: cell-based; conditions: 20 μM juvocimene; 0.2 μM muristerone A
T1 construct: were replaced by EcR LBD amino acids (EcR amino acids 329 to 878); expressed in transfected cells; host or cells: CHO
T1 sequence (P34021 329-878): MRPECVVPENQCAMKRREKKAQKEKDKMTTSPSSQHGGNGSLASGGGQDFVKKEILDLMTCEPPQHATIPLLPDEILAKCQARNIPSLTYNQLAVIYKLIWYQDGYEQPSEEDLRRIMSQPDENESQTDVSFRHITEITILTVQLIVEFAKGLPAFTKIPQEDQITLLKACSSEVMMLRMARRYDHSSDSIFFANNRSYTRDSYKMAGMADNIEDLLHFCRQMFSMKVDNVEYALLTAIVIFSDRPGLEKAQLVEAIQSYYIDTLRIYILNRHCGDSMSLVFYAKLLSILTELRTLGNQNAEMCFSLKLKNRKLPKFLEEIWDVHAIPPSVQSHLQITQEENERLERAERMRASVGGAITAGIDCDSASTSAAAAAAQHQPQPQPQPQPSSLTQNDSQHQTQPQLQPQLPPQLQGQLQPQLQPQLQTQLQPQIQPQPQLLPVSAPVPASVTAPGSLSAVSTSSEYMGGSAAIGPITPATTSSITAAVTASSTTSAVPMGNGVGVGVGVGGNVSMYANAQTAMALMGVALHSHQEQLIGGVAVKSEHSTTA
From the text: For these experiments, the luciferase reporter construct was used. To obviate influences from other transcription factors, results were normalized using a reporter plasmid from which CAT expression is driven by a minimal promoter consisting of dimerized GREs linked upstream of a 13 base pair TATA box DNA element derived from the adenovirus E1B gene.
In this experiment, GGEc and RXR were transfected into CHO cells with either a CAT or a luciferase reporter plasmid containing 1.5 kilobase pairs of the glucocorticoid-inducible mouse mammary tumor virus (MTV) promoter.
In these experiments, CHO cells were transfected with a GGEc-expressing plasmid, a mouse RXRα expression plasmid, and an adenovirus E1b TATA-(GRE)2-CAT reporter plasmid. The GGEc plasmid was eliminated from DNA mixtures added to cells transfected in parallel. CAT activities were measured from lysates of cells from triplicate wells treated with ethanol vehicle, juvocimene (20 μM), muristerone A (0.2 μM), or both.
In these experiments, CHO cells were transfected with DNAs as described above but ubiquinone-2 (10 μM) was substituted for juvocimene.

Compound | stimulation of Drosophila EcR isoforms, agonists compared [1] | GGEc activity increase over MUR (GGEc) [times]
CC(C)CC[C@@H](O)[C@](C)(O)[C@H]1CC[C@@]2(O)C3=CC(=O)[C@]4(O)C[C@@H](O)[C@@H](O)C[C@]4(C)[C@H]3[C@H](O)C[C@]12C [murA, muristerone A] | much greater stimulation by murA, than either 20E or RH 2485 | 
juvocimene |  | 7

— patent US8637237B2, “Methods, compositions, and systems for the identification of species-specific or developmental stage-specific insecticides” (The University of North Carolina at Greensboro, priority 2003, dated 2014)
